From US9951097B2, “Antibacterial compounds targeting isoprenoid biosynthesis” (priority 2012, dated 2018)
Converted amounts (≈) assume the structure as drawn. “Also recorded” adds a separate entry of the source. Like-named read-outs stand apart in the source and are kept apart here.

How the values were obtained:
[1] = tested on: synthetic DNA dodecamer duplex d(CGCGAATTCGCG)2; assay: DNA binding by differential scanning calorimetry (DSC)
[2] = tested on: Mycobacterium tuberculosis
E. coli UPPS = target: T1, E. coli UPPS (Escherichia coli, UniProt P60472); assay: E. coli UPPS inhibition assay; type: biochemical
T1 construct: His-tag (cleaved yes); made in house; host or cells: E. coli BL21 (DE3)
T1 sequence (P60472 whole entry): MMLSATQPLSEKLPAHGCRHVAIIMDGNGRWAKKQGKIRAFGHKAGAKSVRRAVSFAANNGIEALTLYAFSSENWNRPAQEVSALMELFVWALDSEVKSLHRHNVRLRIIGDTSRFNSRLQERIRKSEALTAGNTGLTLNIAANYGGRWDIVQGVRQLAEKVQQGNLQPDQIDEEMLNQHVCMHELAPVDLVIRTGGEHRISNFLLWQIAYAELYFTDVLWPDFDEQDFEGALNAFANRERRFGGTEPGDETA
Protocol: (§1) Methods. EcUPPS and SaUPPS were expressed and purified as described previously (Durrant et al., Chem Biol Drug Des 2011, 78(3):323-332). UPPS inhibition assays were carried out as described previously, and UPPS/inhibitor crystals were obtained via soaking as described previously (Guo et al., Proc Natl Acad Sci USA 2007, 104(24):10022-10027). Structure determinations and refinements were carried out as described below in Example 3. […] Full synthesis and characterization details for all compounds investigated crystallographically are provided in Example 1 above. In vivo experiments used female BALB/c mice infected intraperitoneally with S. aureus (USA200), as described in detail in Example 3 below. Bacterial cell growth inhibition assays were carried out as described previously (Zhang et al., ACS Med Chem Lett 2012, 3(5):402-406).
(§2) UPPS Inhibition Assays. E. coli UPPS and S. aureus UPPS inhibition assays were carried out as described previously (Durrant et al., Chem Biol Drug Des 2011, 78(3):323-332). […] The IC50 values were obtained by fitting the inhibition data to a standard rectangular hyperbolic dose-response function in GraphPad PRISM 4.0 software (Graphpad Software, San Diego, Calif.). […] IPP and 0.01% Triton X-100.

S. aureus UPPS = target: T2, S. aureus UPPS (Staphylococcus aureus, UniProt P60477); assay: biochemical
T2 construct: His-tag (pET-32 Xa/LIC vector tag) (N, cleaved yes); made in house; host or cells: E. coli BL21 (DE3)
T2 sequence (P60477 1-256): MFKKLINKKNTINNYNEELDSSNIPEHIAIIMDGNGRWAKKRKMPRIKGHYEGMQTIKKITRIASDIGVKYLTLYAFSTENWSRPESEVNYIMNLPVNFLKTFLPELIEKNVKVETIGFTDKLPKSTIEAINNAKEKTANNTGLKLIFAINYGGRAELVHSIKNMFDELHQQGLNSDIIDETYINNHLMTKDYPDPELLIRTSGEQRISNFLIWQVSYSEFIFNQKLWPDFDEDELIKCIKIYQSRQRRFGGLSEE
Protocol: as §1, §2

E. coli = E. coli cell growth inhibition; type: cell-based; conditions: for MIC90: Escherichia coli
Protocol: (§3) Methods. EcUPPS and SaUPPS were expressed and purified as described previously (Durrant et al., Chem Biol Drug Des 2011, 78(3):323-332). UPPS inhibition assays were carried out as described previously, and UPPS/inhibitor crystals were obtained via soaking as described previously (Guo et al., Proc Natl Acad Sci USA 2007, 104(24):10022-10027). Structure determinations and refinements were carried out as described below in Example 3. For the eleven structures reported, the resolution was on average 1.88 Å (±0.29 Å) and Rfree was on average 24.6% (±3.9%). Full synthesis and characterization details for all compounds investigated crystallographically are provided in Example 1 above. In vivo experiments used female BALB/c mice infected intraperitoneally with S. aureus (USA200), as described in detail in Example 3 below. Bacterial cell growth inhibition assays were carried out as described previously (Zhang et al., ACS Med Chem Lett 2012, 3(5):402-406).
(§4) Cell growth inhibition. The growth of S. aureus (USA300 strain) and determination of MIC values were as described previously (Molohon et al., ACS chemical biology 2011, 6(12):1307-1313). E. coli growth and construction of isobolograms were also carried out basically as described previously (Leon et al., J Med Chem 2006, 49(25):7331-7341).

[3] = tested on: S. aureus (USA300 strain); assay: S. aureus cell growth inhibition; type: cell-based; conditions: USA300, MRSA strain; for MIC90: Staphylococcus aureus
Protocol: as §3, §4

UPPS = UPPS inhibition, enzyme species not given; type: biochemical
Protocol: as §1, §2

[4] = tested on: S. aureus USA200 Sanger 252 (MRSA) strain

Row | Compound | IC50 (S. aureus UPPS) | IC50 (E. coli UPPS) | MIC90 (E. coli) | MIC90 [3] | also measured
1 | O=C(Nc1cccc(C2=NCCCN2)c1)c1ccc(-c2ccc(C(=O)Nc3cccc(C4=NCCCN4)c3)cc2)cc1 [BPH-1503] | – | – | – | – | DNA binding (in words) [1]: binds to DNA; also recorded: strong DNA binding; shift in Tmax of DNA melting (DSC) ([1]; 1 mM DNA duplex, 1 mM compound): ~10 °C; concentration inhibiting Mycobacterium tuberculosis [2]: 1 µM
2 | O=P(O)(O)C(O)(Cc1cccc(-c2cccc3c2oc2ccccc23)c1)P(=O)(O)O [Compound 5, reference compound] | 350 nM | – | – | – | IC50 (E. coli UPPS; read-out: E. coli UPPS IC50): 280 nM; E. coli MIC90 (E. coli): >32 µg/mL; S. aureus MIC90 [3]: >32 µg/mL
3 | CCCCCCCCCCCCOc1cccc(O)c1C(=O)O [Compound 11, (Dodecyloxy)-6-hydroxybenzoic acid] | 1700 nM | 2200 nM | > 32 µg/mL | – | –
4 | CCCCCCCCCCOc1cccc(C(=O)Nc2ccc([N+](=O)[O-])cc2C(=O)O)c1 [Compound 12, 2-(3-(Decyloxy)benzamido)-5-nitrobenzoic acid] | 490 nM | 3000 nM | > 32 µg/mL | > 32 µg/mL | –
5 | CCCCCCCCOc1cccc(COc2ccc(Br)cc2P(=O)(O)O)c1 [Compound 13, (5-bromo-2-((3-(octyloxy)benzyl)oxy)phenyl)phosphonic acid] | 2500 nM | 920 nM | > 32 µg/mL | 32 µg/mL (≈ 67.9 µM) | –
6 | O=C(Nc1cccc(C2=NCCN2)c1)c1ccc(C(=O)Nc2cccc(C3=NCCN3)c2)c([N+](=O)[O-])c1 [Compound 16, N^1, N^4-bis(3-(4,5-dihydro-1H-imidazol-2-yl)phenyl)-2-nitroterephthalamide] | 4900 nM | 4800 nM | 8 µg/mL (≈ 16.1 µM) | > 32 µg/mL | –
7 | O=C(Nc1cccc(C2=NCCN2)c1)c1ccc(-c2ccc(C(=O)Nc3cccc(C4=NCCN4)c3)cc2)cc1 [Compound 17, N^4, N^4′-bis(3-(4,5-dihydro-1H-imidazol-2-yl)phenyl)-[1,1′-biphenyl]-4,4′-dicarboxamide] | – | – | 4 µg/mL (≈ 7.57 µM) | 0.25 µg/mL (≈ 0.473 µM) | IC50 (UPPS; read-out: UPPS IC50): 100 nM; IC50 (UPPS; read-out: UPPS inhibition): ~100 nM; adverse reactions in treated mice ([4]; 10 mg/kg intraperitoneally once daily, 3 doses): no apparent adverse reactions; mice survived ([4]; 10 mg/kg intraperitoneally once daily, 3 doses, pooled results of 2 experiments): 20/20; activity in mouse model of infection (in words) ([4]; 10 mg/kg once daily, 3 doses total): clear therapeutic activity; also recorded: No mice in the group treated once daily with 10 mg/kg of 17 (3 doses total) died during either experiment; concentration inhibiting Mycobacterium tuberculosis [2]: 0.4 to 0.5 µM
8 | NCCc1cc(Br)cc(C#Cc2cccc(C#Cc3cc(Br)cc(CCN)c3)c2)c1 [Compound 18, 2,2′-((1,3-phenylenebis(ethyne-2,1-diyl))bis(3-bromo-5,1-phenylene))diethanamine] | 1400 nM | – | 8 µg/mL (≈ 15.3 µM) | > 32 µg/mL | IC50 (E. coli UPPS; read-out: E. coli UPPS IC50): 6100 nM
